Tests used:
[1] = biological target: T1, Serine/threonine-protein kinase TNNI3K (Homo sapiens) (UniProt Q59H18); assay: Selectivity interaction (KinomeScan (DiscoverX)) EUB0000229b TNNI3K; conditions: at 10 µM
T1 sequence (whole entry): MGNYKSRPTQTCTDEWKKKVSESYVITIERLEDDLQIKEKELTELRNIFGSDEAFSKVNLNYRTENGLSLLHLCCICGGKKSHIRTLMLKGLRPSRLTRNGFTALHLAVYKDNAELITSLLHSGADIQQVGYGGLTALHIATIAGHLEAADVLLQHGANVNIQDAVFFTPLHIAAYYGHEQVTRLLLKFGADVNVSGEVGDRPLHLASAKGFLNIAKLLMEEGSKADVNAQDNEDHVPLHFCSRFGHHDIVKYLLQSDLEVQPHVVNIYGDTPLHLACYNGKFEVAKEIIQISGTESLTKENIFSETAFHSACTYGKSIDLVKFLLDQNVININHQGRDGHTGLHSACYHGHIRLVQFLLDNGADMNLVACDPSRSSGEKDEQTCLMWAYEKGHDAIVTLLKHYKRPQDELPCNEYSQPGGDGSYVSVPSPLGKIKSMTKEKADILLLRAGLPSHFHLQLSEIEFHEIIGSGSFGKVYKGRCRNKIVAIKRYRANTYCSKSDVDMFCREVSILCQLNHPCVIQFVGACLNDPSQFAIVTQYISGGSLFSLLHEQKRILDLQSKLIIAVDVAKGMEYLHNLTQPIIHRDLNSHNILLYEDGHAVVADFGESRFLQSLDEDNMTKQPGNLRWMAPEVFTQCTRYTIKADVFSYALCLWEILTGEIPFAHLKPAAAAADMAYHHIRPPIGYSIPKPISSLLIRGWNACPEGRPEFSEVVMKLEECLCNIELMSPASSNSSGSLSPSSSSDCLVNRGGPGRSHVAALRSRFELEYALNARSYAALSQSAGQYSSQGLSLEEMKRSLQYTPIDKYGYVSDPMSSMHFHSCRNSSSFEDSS

[2] = biological target: Cyclin-dependent kinase 5 (Homo sapiens, UniProt Q00535); assay: Selectivity interaction (Kinase screening (Nanosyn)) EUB0000604a CDK5
[3] = biological target: T2, Serine/threonine-protein kinase TBK1 (Homo sapiens) (UniProt Q9UHD2); assay: Selectivity interaction (Upstate Kinase Profiler service (Millipore)) EUB0000056c TBK1; conditions: at 1 µM
T2 sequence (whole entry): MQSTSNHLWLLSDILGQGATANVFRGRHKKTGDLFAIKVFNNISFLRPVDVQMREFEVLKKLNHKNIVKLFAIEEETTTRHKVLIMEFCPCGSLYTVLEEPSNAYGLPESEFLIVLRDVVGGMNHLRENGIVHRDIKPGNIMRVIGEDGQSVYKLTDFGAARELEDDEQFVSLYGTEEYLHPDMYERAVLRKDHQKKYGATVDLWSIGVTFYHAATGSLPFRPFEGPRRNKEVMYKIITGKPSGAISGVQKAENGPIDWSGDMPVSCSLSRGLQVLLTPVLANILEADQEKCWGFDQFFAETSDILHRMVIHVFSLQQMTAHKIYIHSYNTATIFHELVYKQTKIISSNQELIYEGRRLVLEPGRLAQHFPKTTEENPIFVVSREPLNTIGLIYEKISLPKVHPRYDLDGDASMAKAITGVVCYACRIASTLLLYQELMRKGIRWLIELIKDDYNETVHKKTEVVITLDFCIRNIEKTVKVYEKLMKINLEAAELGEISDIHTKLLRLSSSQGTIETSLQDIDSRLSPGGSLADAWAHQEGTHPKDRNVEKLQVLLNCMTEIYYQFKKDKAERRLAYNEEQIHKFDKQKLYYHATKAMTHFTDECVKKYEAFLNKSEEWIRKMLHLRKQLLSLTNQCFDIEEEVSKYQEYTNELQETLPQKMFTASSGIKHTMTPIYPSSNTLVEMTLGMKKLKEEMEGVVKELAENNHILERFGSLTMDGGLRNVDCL

[4] = biological target: T3, Serine/threonine-protein kinase 3 (Homo sapiens) (UniProt Q13188); assay: Selectivity interaction (ProQinase) EUB0000171b STK3
T3 sequence (whole entry): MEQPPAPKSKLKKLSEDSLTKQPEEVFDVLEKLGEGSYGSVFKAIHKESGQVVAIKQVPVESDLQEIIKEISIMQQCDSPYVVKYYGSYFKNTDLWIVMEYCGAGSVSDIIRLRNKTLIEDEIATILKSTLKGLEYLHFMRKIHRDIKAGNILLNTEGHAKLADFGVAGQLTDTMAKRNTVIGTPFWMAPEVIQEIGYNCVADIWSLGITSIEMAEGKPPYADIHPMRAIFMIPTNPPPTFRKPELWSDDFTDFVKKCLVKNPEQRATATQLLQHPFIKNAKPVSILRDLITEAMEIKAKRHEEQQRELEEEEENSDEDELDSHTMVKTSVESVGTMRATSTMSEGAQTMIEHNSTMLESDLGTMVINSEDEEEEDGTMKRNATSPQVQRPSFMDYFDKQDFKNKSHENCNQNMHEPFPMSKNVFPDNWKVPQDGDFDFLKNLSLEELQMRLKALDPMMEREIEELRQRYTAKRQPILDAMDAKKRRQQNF

[5] = biological target: T4, Inhibitor of nuclear factor kappa-B kinase subunit beta (Homo sapiens) (UniProt O14920); assay: Selectivity interaction (Kinase panel (Invitrogen)) EUB0000639a IKBKB; conditions: at 200 nM
T4 sequence (whole entry): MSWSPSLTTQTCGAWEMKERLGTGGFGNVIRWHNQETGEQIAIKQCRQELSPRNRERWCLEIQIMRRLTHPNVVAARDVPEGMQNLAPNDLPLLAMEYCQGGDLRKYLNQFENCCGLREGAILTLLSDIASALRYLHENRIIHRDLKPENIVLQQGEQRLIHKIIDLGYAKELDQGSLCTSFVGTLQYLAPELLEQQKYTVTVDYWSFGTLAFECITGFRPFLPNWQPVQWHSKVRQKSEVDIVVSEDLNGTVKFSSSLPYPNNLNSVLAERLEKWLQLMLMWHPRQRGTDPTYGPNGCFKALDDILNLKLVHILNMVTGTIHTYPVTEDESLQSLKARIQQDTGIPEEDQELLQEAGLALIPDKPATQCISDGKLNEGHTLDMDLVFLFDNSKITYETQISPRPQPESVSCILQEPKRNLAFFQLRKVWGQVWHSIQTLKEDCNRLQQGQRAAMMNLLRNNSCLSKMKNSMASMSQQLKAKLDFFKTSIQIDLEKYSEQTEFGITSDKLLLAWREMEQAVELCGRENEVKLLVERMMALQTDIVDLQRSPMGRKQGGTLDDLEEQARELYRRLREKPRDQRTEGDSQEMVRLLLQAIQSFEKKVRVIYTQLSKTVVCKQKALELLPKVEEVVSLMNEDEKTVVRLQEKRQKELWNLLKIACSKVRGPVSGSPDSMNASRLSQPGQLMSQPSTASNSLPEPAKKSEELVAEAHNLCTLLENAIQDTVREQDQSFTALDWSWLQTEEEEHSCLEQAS

SRSF protein kinase 1 = SRSF protein kinase 1 (Homo sapiens, UniProt Q96SB4); conditions: at 10 µM
Chain of SRSF protein kinase 1 (Q96SB4 whole entry): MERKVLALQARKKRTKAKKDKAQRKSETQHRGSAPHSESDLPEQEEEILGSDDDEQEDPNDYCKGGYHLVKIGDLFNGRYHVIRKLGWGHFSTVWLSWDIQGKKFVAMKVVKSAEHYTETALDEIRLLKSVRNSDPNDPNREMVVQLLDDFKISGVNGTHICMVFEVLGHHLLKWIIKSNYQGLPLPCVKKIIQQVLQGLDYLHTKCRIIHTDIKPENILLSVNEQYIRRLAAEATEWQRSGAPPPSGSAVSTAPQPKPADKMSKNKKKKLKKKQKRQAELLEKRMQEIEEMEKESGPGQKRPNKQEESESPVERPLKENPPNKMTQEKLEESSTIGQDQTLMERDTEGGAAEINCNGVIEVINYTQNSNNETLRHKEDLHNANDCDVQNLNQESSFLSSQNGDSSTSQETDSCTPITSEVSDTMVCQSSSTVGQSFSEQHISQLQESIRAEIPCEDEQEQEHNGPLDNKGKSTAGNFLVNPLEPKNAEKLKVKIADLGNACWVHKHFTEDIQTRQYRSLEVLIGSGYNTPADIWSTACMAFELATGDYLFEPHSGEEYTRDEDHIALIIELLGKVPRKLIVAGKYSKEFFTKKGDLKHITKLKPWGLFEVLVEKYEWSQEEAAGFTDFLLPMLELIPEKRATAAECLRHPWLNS

Chain of Cyclin-dependent kinase 5 (Q00535 whole entry, looked up): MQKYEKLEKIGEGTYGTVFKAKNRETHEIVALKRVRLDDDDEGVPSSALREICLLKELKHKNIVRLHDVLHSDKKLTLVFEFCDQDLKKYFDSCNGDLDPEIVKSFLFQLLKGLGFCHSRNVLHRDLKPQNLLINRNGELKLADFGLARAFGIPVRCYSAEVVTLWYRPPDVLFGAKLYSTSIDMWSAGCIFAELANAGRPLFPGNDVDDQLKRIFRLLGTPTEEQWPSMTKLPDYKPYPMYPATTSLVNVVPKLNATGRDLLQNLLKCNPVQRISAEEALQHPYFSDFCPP

COc1cc(N(C)c2ccnc3ccc(C(F)(F)F)cc23)cc(OC)c1OC
% binding [1]: 90%

Cc1cnc(Nc2ccc(F)cc2Cl)nc1-c1c[nH]c(C(=O)N[C@H](CO)c2cccc(Cl)c2)c1
% of inhibition [2]: 24%

Cc1ccc(-c2ccc3c(ccc4sc5c(c43)NC[C@@H](C)NC5=O)n2)cn1
% of inhibition [3]: 18%

C=CC(=O)Nc1cccc(C(=O)Nc2ccc(Nc3cc(-c4[nH]c(SC)nc4C)ccn3)cc2)c1
% of control ([4]; at 1 µM): 83%
% of control ([4]; at 5 µM): 69%

CC[C@@H]1[C@H](F)C(=O)N[C@@H]1COc1nccc2cc(C(N)=O)c(OC)cc12 [ZIMLOVISERTIB]
% of inhibition [5]: 4.3%

CCN(CC)CCCCNc1ncc2cc(-c3cc(OC)cc(OC)c3)c(NC(=O)NC(C)(C)C)nc2n1
% of control (SRSF protein kinase 1): 100%
